For eleven compounds, Cytotoxicity and IC50 results are on record in ChEMBL document CHEMBL1133412, “Rational design, synthesis and structure-activity relationships of antitumor (E)-2-benzylidene-1-tetralones and (E)-2-benzylidene-1-indanones” (Bioorg Med Chem Lett, 2000).

A word on the IC50: it is the midpoint of a concentration-inhibition curve.

Holding throughout (format): functional, cell-based
In one assay the test system is A549. The assay is described as follows: Cytotoxicity evaluated against A549 tumor cell lines; significant activity. The following applies: Homo sapiens.
The test system of a further assay is MOLT-4. Kind of assay: Cytotoxicity was evaluated against Molt-4 tumor cell lines. The note with it: Homo sapiens.
Another assay concerns CCRF-CEM. The assay is described as follows: Cytotoxicity evaluated against CEM tumor cell lines; Significant activity. The note with it: Homo sapiens.
For another assay, the system named is L1210. Kind of assay: Cytotoxicity evaluated against L1210 tumor cell lines; Significant activity. The note with it: Mus musculus.
Another assay has as its system HL-60. Kind of assay: Cytotoxicity evaluated against HL-60 tumor cell lines; Significant activity. The note with it: Homo sapiens.
The next assay has as its system WI-38. The assay is described as follows: Cytotoxicity evaluated against WI38 tumor cell lines; Significant activity. The note with it: Homo sapiens.
In another assay the test system is Jurkat. The assay is described as follows: In vitro test for antitumor activity against human Jurkat cell line using a formazan dye (MTT) conversion assay.
For another assay, the system named is NIH3T3. Kind of assay: Cytotoxicity evaluated against NIH3T3 tumor cell lines; Significant activity. The following applies: Mus musculus.
A further assay has as its system K562. Kind of assay: Cytotoxicity evaluated against K562 tumor cell lines; Significant activity. The note with it: Homo sapiens.
In a further assay the test system is MCF7. Kind of assay: Cytotoxicity evaluated against MCF-7 tumor cell lines; Significant activity. The following applies: Homo sapiens.
The test system of the next assay is NCI-H292. The assay is described as follows: Cytotoxicity evaluated against H292 tumor cell lines; Significant activity. The following applies: Homo sapiens.
The test system of a further assay is NCI-H596. The assay is described as follows: Cytotoxicity evaluated against H596 tumor cell lines; Significant activity. The note with it: Homo sapiens.
Another assay has as its system B16. The assay is described as follows: Cytotoxicity was evaluated against B16 tumor cell lines; Significant activity. The following applies: Mus musculus.
Another assay deals with WIL2. Kind of assay: Cytotoxicity evaluated against WIL2 tumor cell lines; Significant activity. The note with it: Homo sapiens.

Each structure is given as a SMILES string. Some results are limits rather than exact numbers.

For the compound `COc1cc2c(cc1OC)C(=O)/C(=C/c1cccc(C)c1)CC2`, the Cytotoxicity entry in the assay with A549, in the assay on MOLT-4, in the assay with CCRF-CEM, with L1210, in the assay with HL-60 and in the assay with WI-38 was “Significant activity” each time. For the same compound, the Cytotoxicity result in the assay with NIH3T3, with K562, in the assay with MCF7, with NCI-H292, in the assay on NCI-H596 and in the assay on B16 was “Significant activity” in each case. Further, the Cytotoxicity result with WIL2 was “Significant activity”. Further, the concentration for half-maximal inhibition (IC50) with Jurkat stood at 17 µM.

Regarding `COc1cc(/C=C2\CCc3cc(OC)c(OC)cc3C2=O)cc(OC)c1`, the Cytotoxicity entry in the assay on A549, with MOLT-4, in the assay with CCRF-CEM, with L1210, with HL-60 and in the assay on WI-38 was “Significant activity” each time. Also, the Cytotoxicity result in the assay on NIH3T3, in the assay on K562, in the assay with MCF7, in the assay on NCI-H292, in the assay with NCI-H596 and with B16 was “Significant activity” throughout. In the assay on WIL2, the Cytotoxicity entry was “Significant activity”. The compound also came in with an IC50 in the assay with Jurkat of 5 µM.

As to `COc1cc2c(cc1OC)C(=O)/C(=C/c1ccc(O)c(C)c1)C2`, the Cytotoxicity result in the assay with A549, in the assay with MOLT-4, in the assay with CCRF-CEM, with L1210, in the assay on HL-60 and in the assay with WI-38 was “Significant activity” each time. In addition, the Cytotoxicity entry in the assay with NIH3T3, in the assay with K562, in the assay on MCF7, with NCI-H292, in the assay with NCI-H596 and in the assay on B16 was “Significant activity” each time. The Cytotoxicity result in the assay on WIL2 was “Significant activity”. The compound further had a 50% inhibitory concentration (IC50) with Jurkat of 1.16 µM.

`COc1cc2c(cc1OC)C(=O)/C(=C/c1cc(F)cc(F)c1)C2`: the Cytotoxicity result in the assay on A549, in the assay with MOLT-4, with CCRF-CEM, in the assay with L1210, in the assay on HL-60 and with WI-38 was “Significant activity” each time. The Cytotoxicity entry with NIH3T3, in the assay with K562, with MCF7, in the assay with NCI-H292, with NCI-H596 and in the assay with B16 was “Significant activity” each time. For the same compound, the Cytotoxicity result with WIL2 was “Significant activity”. The compound also had an IC50 with Jurkat of 19 µM.

For the compound `COc1cc2c(cc1OC)C(=O)/C(=C/c1cc(C)c(OC(C)=O)c(C)c1)C2`, the Cytotoxicity result in the assay on A549, in the assay on MOLT-4, with CCRF-CEM, with L1210, in the assay on HL-60 and with WI-38 was “Significant activity” in each case. Further, the Cytotoxicity result in the assay on NIH3T3, in the assay on K562, in the assay on MCF7, with NCI-H292, in the assay with NCI-H596 and in the assay on B16 was “Significant activity” each time. Besides, the Cytotoxicity entry in the assay on WIL2 is “Significant activity”. This compound also yielded an IC50 in the assay with Jurkat of 0.4 µM.

As to `COc1cc2c(cc1OC)C(=O)/C(=C/c1cccc(Cl)c1)CC2`, the Cytotoxicity result with A549, in the assay on MOLT-4, in the assay with CCRF-CEM, with L1210, in the assay on HL-60 and in the assay with WI-38 was “Significant activity” throughout. The Cytotoxicity result in the assay on NIH3T3, in the assay with K562, in the assay with MCF7, in the assay with NCI-H292, in the assay with NCI-H596 and with B16 was “Significant activity” in each case. The Cytotoxicity result in the assay with WIL2 is “Significant activity”. The half-inhibitory concentration (IC50) with Jurkat was 9 µM.

`COc1cc2c(cc1OC)C(=O)/C(=C/c1cc(OC)c(OC)c(OC)c1)CC2`: the Cytotoxicity entry in the assay on A549, in the assay on MOLT-4, in the assay with CCRF-CEM, in the assay on L1210, in the assay on HL-60 and in the assay with WI-38 was “Significant activity” in each case. Besides, the Cytotoxicity result in the assay with NIH3T3, in the assay on K562, in the assay with MCF7, with NCI-H292, in the assay on NCI-H596 and with B16 was “Significant activity” each time. The Cytotoxicity entry in the assay with WIL2 is “Significant activity”. Besides, in the assay on Jurkat, the IC50 is more than 50 µM.

With `COc1cccc(/C=C2\Cc3cc(OC)c(OC)cc3C2=O)c1`, the Cytotoxicity entry with A549, in the assay on MOLT-4, in the assay on CCRF-CEM, in the assay on L1210, with HL-60 and with WI-38 was “Significant activity” each time. Besides, the Cytotoxicity entry with NIH3T3, in the assay with K562, in the assay with MCF7, in the assay with NCI-H292, in the assay with NCI-H596 and with B16 was “Significant activity” in each case. Further, the Cytotoxicity entry in the assay with WIL2 is “Significant activity”. This compound also gave a concentration for half-maximal inhibition (IC50) in the assay with Jurkat of 12.8 µM.

Regarding `COc1cc2c(cc1OC)C(=O)/C(=C/c1cc(C)cc(C)c1)CC2`, the Cytotoxicity result in the assay on A549, in the assay with MOLT-4, in the assay with CCRF-CEM, with L1210, in the assay with HL-60 and in the assay on WI-38 was “Significant activity” each time. Also, the Cytotoxicity entry in the assay on NIH3T3, with K562, in the assay on MCF7, in the assay with NCI-H292, in the assay with NCI-H596 and in the assay on B16 was “Significant activity” throughout. In addition, in the assay with WIL2, the Cytotoxicity result was “Significant activity”. In addition, in the assay on Jurkat, it took 4 µM to reach half-maximal inhibition (IC50).

For the compound `COc1cc2c(c(OC)c1OC)C(=O)/C(=C/c1cc(C)c(O)c(C)c1)C2`, the Cytotoxicity result with A549, in the assay with MOLT-4, with CCRF-CEM, with L1210, in the assay on HL-60 and in the assay with WI-38 was “Significant activity” in each case. In addition, the Cytotoxicity result in the assay on NIH3T3, in the assay on K562, with MCF7, with NCI-H292, in the assay with NCI-H596 and with B16 was “Significant activity” in each case. Moreover, the Cytotoxicity entry in the assay on WIL2 is “Significant activity”. In the assay on Jurkat, half-maximal inhibition (IC50) required 0.125 µM.

With `CCOC(=O)COc1c(C)cc(/C=C2\Cc3cc(OC)c(OC)cc3C2=O)cc1C`, the Cytotoxicity result with A549, in the assay with MOLT-4, in the assay with CCRF-CEM, with L1210, in the assay with HL-60 and in the assay with WI-38 was “Significant activity” in each case. The Cytotoxicity entry in the assay on NIH3T3, with K562, in the assay on MCF7, in the assay with NCI-H292, in the assay on NCI-H596 and in the assay on B16 was “Significant activity” throughout. Besides, in the assay with WIL2, the Cytotoxicity entry is “Significant activity”. This compound also had a half-inhibitory concentration (IC50) in the assay on Jurkat of 2.2 µM.
